Experimental data: patent US8501813B2, “γ-secretase inhibitor” (Kabushiki Kaisha Yakult Honsha, priority 2007, dated 2013)

What was measured:
C99 cells = assay: Cytotoxicity on C99 cells, cell viability by Cell Counting Kit-8; type: cell-based, human; conditions: 24 h
Description: The cytotoxicity of four test substances (TLVM-5, TLVM-7, TLVM-8, and TLVM-9) on the C99 cells was measured using a method shown below.
In the present test, a medium used for the C99 cells was 500 mL of a Dulbecco's Modified Eagle's Medium (DMEM, Sigma-Aldrich Corp.) supplemented with 55 ml of fetal bovine serum (Biosource), 5.5 ml of MEM non-essential amino acids (Gibco), and 5.5 ml of penicillin/streptomycin (Gibco).
The C99 cells were suspended at a concentration of 0.75×10^5 cells/ml in the medium. The suspension was added at a concentration of 100 μL (0.75×10^4 cells)/well to a 96-well collagen plate (Akita Sumitomo Bakelite Co., Ltd.) and cultured for 2 days. Then, the medium (corresponding to 50 μL/well) in the wells was removed, and a fresh medium was added thereto at a concentration of 30 μL/well. […] Then, the cell viability was measured using Cell Counting Kit-8 (Dojindo Laboratories).

γ-secretase = γ-secretase (Homo sapiens, UniProt P49768); assay: Substrate specificity: β-Alcα secretion by HEK293 cells transfected with FLAG Alcα C150, anti-FLAG immunoprecipitation/western blot; type: cell-based; conditions: 0.2 μmol/L; for activity at 0.2 µM: HEK293, 24 h, FLAG Alcα C150, negative control = 100%, read-out: (ii) β-Alcα secretion rate of HEK293 cells
Description: Of families constituting human Alcadein (hereinafter, referred to as Alc) known as a substrate for γ-secretase to colocalize with APP in brain neurons, an artificial Alcα fragment (hereinafter, referred to as Alcα C150) whose first extracellular cleavage site and γ-secretase cleavage site were determined was used to study the substrate specificity of the γ-secretase inhibitor of the present invention. β-Alcα produced from a first cleavage construct of Alcα cannot be quantified by sELISA used in Aβ measurement. Therefore, proteins with an attached FLAG tag at the N termini of first cleavage constructs of Alcα and of C99 were expressed by cells. FLAG-Aβ-like peptides secreted into a medium were collected by immunoprecipitation using anti-FLAG antibodies and detected by western blotting using the antibodies. A specific method thereof is shown below.
HEK293 cells (ATCC) (1×10^7 cells/10 cm dish) cultured in 6 ml of 10% FCS-containing DMEM (Wako Pure Chemical Industries, Ltd.) were transfected with FLAG APP C99 pcDNA3.1 (the nucleotide sequence of its coding region is shown in SEQ ID NO: 2) (J. Biol. Chem., 2003, 278, 49448-49458 (which was prepared from pcDNA3-APPC99)) or with FLAG Alcα C150 pcDNA3.1 (the nucleotide sequence of its coding region is shown in SEQ ID NO: 3) (J. Biol. Chem., 2004, 279, 24343-24354 (which was the same as pcDNA3AlcαΔE)) using Lipofectamine 2000 (Invitrogen Corp.) according to the protocol included in the reagent. Each inhibitor and a positive control (γ-Secretase Inhibitor IX (DAPT)) (Calbiochem Contact Information) were separately added at a concentration of 0.2 or 2 μmol/L. The same dose of DMSO (Wako Pure Chemical Industries, Ltd.) thereas was added as a negative control. 24 hours later, the culture supernatants were collected, and samples were preliminarily purified using beads (100 μL of 50% (v/v) Protein-G Sepharose (GE Healthcare)). Then, 15 μL of 50% (v/v) anti-FLAG antibody M2 beads (Sigma-Aldrich Corp.) were added thereto, and the samples were incubated at 4° C. for 1 hour. The beads were collected by centrifugation and washed three times with a buffer (10 mM Tris-HCl [pH 8.0], 140 mM NaCl, 0.1% n-octyl glucoside, 0.025% sodium azide), and Aβ and β-Alcα in the medium were collected. The proteins were subjected to SDS-PAGE using a 15% Tris-Tricine gel (Anal Biochem., 1987, 166 (2), 368-379) and then transferred to a membrane. The membrane was boiled for 5 minutes in PBS. Then, anti-FLAG M2 antibodies (5 μg/ml) (Sigma-Aldrich Corp.) were added thereto, and the membrane was incubated, followed by detection using a western blotting detection reagent ECL (GE Healthcare). This signal was quantified using Versa-doc system (Bio-Rad Laboratories, Inc.) to calculate protein secretion rates (the protein secretion rate of the negative control is defined as 100%).

Row | SMILES | Cell viability of C99 cells (C99 cells; exposure 0.3 μmol/L) [%] | Cell viability of C99 cells (C99 cells; exposure 1 μmol/L) [%] | Cell viability of C99 cells (C99 cells; exposure 3 μmol/L) [%] | Cell viability of C99 cells (C99 cells; exposure 10 μmol/L) [%] | Cell viability of C99 cells (C99 cells; exposure 30 μmol/L) [%] | Cell viability of C99 cells (C99 cells; exposure 100 μmol/L) [%] | γ cleavage of the Alcα-C150, in words (γ-secretase) | activity at 0.2 µM (γ-secretase) [%]
1 | CCCCNC(=O)C(CCSC)NC(=O)C(NC(=O)C(CC(C)C)CC(O)C(NC(=O)OC(C)(C)C)C(C)O)C(C)C [TLVM-7, [5S-(tert-butoxycarbonylamino)-4R,6R-dihydroxy-2R-(2-methylpropyl)heptanoyl]-L-valyl-L-methionine n-butylamide] | 92 | 105 | 96 | 102 | 91 | 96 | did not inhibit | 120
2 | CSCCC(NC(=O)C(NC(=O)C(CC(C)C)CC(O)C(NC(=O)OC(C)(C)C)C(C)O)C(C)C)C(=O)NCc1ccc(F)cc1 [TLVM-9, [5S-(tert-butoxycarbonylamino)-4R,6R-dihydroxy-2R-(2-methylpropyl)heptanoyl]-L-valyl-L-methionine 4-fluorobenzylamide] | 104 | 106 | 106 | 105 | 93 | 57 | did not inhibit | 158
3 | CSCCC(NC(=O)C(NC(=O)C(CC(C)C)CC(O)C(NC(=O)OC(C)(C)C)C(C)O)C(C)C)C(=O)NC(C)c1ccccc1 [TLVM-8, [5S-(tert-butoxycarbonylamino)-4R,6R-dihydroxy-2R-(2-methylpropyl)heptanoyl]-L-valyl-L-methionine (S)-α-methylbenzylamide] | 101 | 102 | 101 | 98 | 91 | 8 | did not inhibit | 118
4 | CSCCC(NC(=O)C(NC(=O)C(CC(C)C)CC(O)C(NC(=O)OC(C)(C)C)C(C)O)C(C)C)C(=O)NCc1ccccc1 [TLVM-5, [5S-(tert-butoxycarbonylamino)-4R,6R-dihydroxy-2R-(2-methylpropyl)heptanoyl]-L-valyl-L-methionine benzylamide] | 102 | 109 | 112 | 104 | 82 | 46 | did not inhibit | 140
